Test results from publication PMC7235904, “Is Blood a Good Indicator for Detecting Antimicrobials in Meat? Evidence for the Development of In Vivo Surveillance Methods” (Antibiotics, 2020).
Entries after “also recorded” stand apart in the source; their conditions may differ. Where two headings read alike, the source gives them in different places. Marks after values point to notes of the source that are not given here.

Columns and labels:
[1] = Antimicrobial residue concentration and depletion in muscle of treated pigs within the withdrawal period (LC-MS/MS or HPLC-FLD); assay type: in vivo; details: for concentration at 2 day of withdrawal period: withdrawal period Day 2, pig; for concentration at 3 day of withdrawal period: withdrawal period Day 3, pig
Text: To obtain samples containing antimicrobial compounds administered in vivo, 93 piglets (62 female, 31 male) with an average weight of 43.00 ± 12.79 kg were provided at treatment onset. These piglets were untreated animals that remained on the premises of the Faculty of Veterinary Sciences at the University of Zaragoza (Zaragoza, Spain) 40 days before administration of the compounds. Both during the acclimatization and withdrawal periods, animals were fed ad libitum with a special mixed feed that was free of antibiotics ([…], Spain), and water was provided from a separated, controlled water circuit. Piglets were raised in separate pens depending on the antibiotic administrated. After administration, animals were slaughtered at preset intervals within the withdrawal period in order to obtain samples containing different antimicrobial concentrations above and below the MRLs for muscle. Figure S1 indicates the slaughter days and the withdrawal periods set by the manufacturer for each antimicrobial compound administered. Between one and three piglets were slaughtered on the same day post-administration. The day of slaughter was calculated from the first day after the last antimicrobial treatment dose. […] Apart from samples containing antimicrobial compounds administered in vivo, and as a part of the sample bank, 15 of the 93 piglets were slaughtered after the acclimatization period and before treatment onset. Animals were stunned and slaughtered following the guidelines established by European Council Regulation (EC) No. 1099/2009 [39] regarding the protection of animals at the time of slaughter or killing. A penetrative captive bolt gun was used to stun the pigs, positioning it firmly against the skin, in the middle of the forehead, 2 cm above the line of the eyes, aiming towards the tail. This was followed by complete exsanguination carried out by incision in the jugular furrow at the base of the neck to sever all the major blood vessels arising from the heart. The samples obtained from them were used as blank samples for analysis. […] Samples were immediately frozen at -20 °C until analysis. For HPLC-FLD analyses, matrix solid phase dispersion (MSPD) was used. A total of 1.00 ± 0.01 g of tissue was weighed. Internal quality control samples were spiked at this point. […] It was introduced into a 25 mL reservoir and compacted. Clean-up was made with 8 mL of hexane, and quinolones were eluted with 15 mL acetonitrile/methanol (1:1) acidified with acetic acid 1%. […] The extraction procedure for LC-MS/MS determination was based on Chico et al.. […] All samples were spiked with IS at this point, and calibrants and internal quality control samples were prepared by spiking the corresponding amount of standard working solution. A total of 200 μL of 0.1 M EDTA was added, followed by 10 mL of 70% methanol, and samples were vortexed for 30 s, swung for 15 min, and finally centrifuged at 4500 rcf for 10 min at a temperature below 10 °C (Heraeus Multifuge X3 FR, Heraeus, Hanau, Germany). Then, 500 μL of supernatant was collected and diluted by adding 1500 μL of water. Extracts were filtered through 0.2 μm pore filters directly into LC-MS/MS vials. […] Mobile phase consisted of eluent A: phosphoric acid with trimethylamine buffer (pH = 3), and eluent B: acetonitrile, in isocratic mode (21:79) with a flow rate of 1 mL/min. Injected volume was 50 μL. […] The same mobile phase and gradient conditions as in SCIEX instruments were applied. Injected volume was 10 μL. Two ESI+ MRM transitions were monitored for each compound (Table S5). […] Results were represented as the mean ± standard deviation using the PRISM program (GraphPad Software, Inc., San Diego, USA). The rates of elimination (λz) of antibiotics from muscle and blood were determined by regression analysis. […]

[2] = Relationship between concentrations detected in paired blood and muscle samples; assay type: in vivo, pigs; details: paired pig blood and muscle samples
Description: After administration, animals were slaughtered at preset intervals within the withdrawal period in order to obtain samples containing different antimicrobial concentrations above and below the MRLs for muscle. Figure S1 indicates the slaughter days and the withdrawal periods set by the manufacturer for each antimicrobial compound administered. Between one and three piglets were slaughtered on the same day post-administration. The day of slaughter was calculated from the first day after the last antimicrobial treatment dose. […] Apart from samples containing antimicrobial compounds administered in vivo, and as a part of the sample bank, 15 of the 93 piglets were slaughtered after the acclimatization period and before treatment onset. Animals were stunned and slaughtered following the guidelines established by European Council Regulation (EC) No. 1099/2009 [39] regarding the protection of animals at the time of slaughter or killing. A penetrative captive bolt gun was used to stun the pigs, positioning it firmly against the skin, in the middle of the forehead, 2 cm above the line of the eyes, aiming towards the tail. […]
Data were analyzed and submitted to comparison of averages via ANOVA, followed by a post-hoc Tukey test and t-tests with GraphPad PRISM. […]

[3] = forequarter muscle, intramuscular, read-out: Concentration in Forequarters
[4] = hindquarter muscle, intramuscular, read-out: Concentration in Hindquarters
[5] = loin muscle, intramuscular, read-out: Concentration in Loins
[6] = over the sample bank of treated piglets

half-life ([1]; both sexes, intramuscular, pig muscle, T1/2=Ln(2)/λz, read-out: T1/2 half-life of elimination (MUSCLE) (converted)): 13.2 h | concentration at 2 day of withdrawal period [1, 3]: 311 ± 22.6 ng/g | concentration at 3 day of withdrawal period [1, 3]: 43 ng/g | concentration at 2 day of withdrawal period [1, 4]: 351 ± 20.1 ng/g | concentration at 3 day of withdrawal period [1, 4]: 40.5 ± 0.71 ng/g | concentration at 2 day of withdrawal period [1, 5]: 349 ± 16.5 ng/g | concentration at 3 day of withdrawal period [1, 5]: 49.5 ± 0.71 ng/g | Maximum concentration value in Muscle [1, 6]: 1179.67 ± 41.88 µg/kg | Minimum concentration value in Muscle [1, 6]: 14.00 ± 1.41 µg/kg | Slope (MUSCLE) ([1]; pig muscle, regression of concentration over the withdrawal period, deep intramuscular treatment): −0.5494 ± 0.0237 ^a
Structure (SMILES): COc1ccc(NS(=O)(=O)c2ccc(N)cc2)nn1 [Sulfamethoxypyridazine, sulfamethoxypyridazine]
Concentration in blood compared to muscle [2]: three times higher in blood; also recorded: around three times higher
